Laboratory results as given in patent publication US12038430B2, “Methods for high-content drug screening” (The Regents of the University of California, priority 2018, dated 2024).

Tested on: human wildtype CFTR
Assay: Iodide transport / YFP quenching CFTR activation assay in FRT cells on micropillar array
Type: cell-based
Conditions: 10 μM forskolin in alginate hydrogel, 10 min contact, FRT cells expressing human CFTR and YFP, versus neighboring area without forskolin
Procedure: FRT cells stably expressing human wildtype CFTR and yellow fluorescent protein YFP-H148/I152L were cultured on polyester transwell filters until they formed a tight monolayer (electrical resistance >3 kOhm·cm^2), as previously described in the art. The cell culture medium was then replaced with a viscous solution consisting of 2% methylcellulose (about 41,000 daltons, Sigma-Aldrich) in PBS. The cell layer was contacted with a 10×10 micropillar array for 10 min, and then the viscous solution was rinsed. For transport measurement, an iodide-containing solution (PBS with 120 mM chloride was replaced by iodide) was added manually on top of the cell layer. YFP fluorescence of the entire cell culture area was monitored for 5 min at 10 Hz using a 2× magnification lens (CFI Plan Apo Lambda 2X, Nikon, Melville, NY) with EMCCD camera detector (C9100, Hamamatsu). YFP fluorescence is reduced as the added extracellular iodide is transported into cell cytoplasm through activated CFTR. The time course of fluorescence for each of the 100 locations, each integrated over the 100-μm diameter circular cell area overlying the corresponding micropillar well, was determined using ImageJ. […]
CFTR function was determined from the kinetics of YFP fluorescence quenching following addition of an iodide-containing solution on the apical surface of the cell monolayer. […]

SMILES: C=C[C@@]1(C)CC(=O)[C@]2(O)[C@@]3(C)[C@@H](O)CCC(C)(C)[C@@H]3[C@H](O)[C@H](OC(C)=O)[C@@]2(C)O1 [Forskolin, forskolin]
- increase of initial curve slope of YFP fluorescence quenching (CFTR activation): more than 14 fold
